Data reported in patent US8048825B2, “Haloalkylsulfonanilide derivatives or salt thereof, herbicide comprising the derivatives as active ingredient, and use of the herbicide” (Nihon Nohyaku Co., Ltd., priority 2006, dated 2011).

Legend:
Type in all cases: in vivo
[1] = tested on: Lindernia procumbens; test: Herbicidal efficacy on paddy field weeds of pre-emergence stage (Pre), Test Example 1; settings: 1000 g/ha as active ingredient, examined after 21 days
Method in brief: (§1)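 Pre-emergence paddy test: 1000 g/ha active ingredient, formulated and water-diluted, dropped onto 5 cm floodwater one day after sowing both weeds in clay loam. After 21 days in greenhouse, inhibition relative to untreated control rated on 0 (0%) to 5 (100%) scale.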

[2] = tested on: Scirpus juncoides; test: as above; settings: 1000 g/ha as active ingredient, examined after 21 days
Method in brief: as §1

[3] = tested on: Lindernia procumbens; test: Herbicidal effect on paddy field weeds of post-emergence stage (Post), Test Example 2; settings: one-leaf stage, 1000 g/ha as active ingredient, examined after 21 days
Method in brief: (§2)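 Post-emergence paddy test: formulated compound added to 5 cm standing water at 1000 g/ha a.i. when weeds reached one-leaf stage in clay loam pots in greenhouse. Growth inhibition rated 21 days later versus untreated control on a 0 (0%) to 5 (100%) scale.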

[4] = tested on: Scirpus juncoides; test: as above; settings: one-leaf stage, 1000 g/ha as active ingredient, examined after 21 days
Method in brief: as §2

[5] = tested on: Echinochloa crus-galli; test: as above; settings: one-leaf stage, 1000 g/ha as active ingredient, examined after 21 days
Method in brief: as §2

Row | SMILES | Lindernia procumbens pre (herbicidal effect) [1] | Scirpus juncoides pre (herbicidal effect) [2] | Lindernia procumbens post (herbicidal effect) [3] | Scirpus juncoides post (herbicidal effect) [4] | Echinochloa crus-galli post (herbicidal effect) [5]
1 | CCCCOC(=O)N(c1ccccc1CN1CC(C)(C)COC1=O)S(=O)(=O)C(F)(F)F [Compound 1-27] | 4 (90%-99% herbicidal effect, phytotoxicity) | 4 (90%-99% herbicidal effect, phytotoxicity) | 4 (90%-99% herbicidal effect, phytotoxicity) | 4 (90%-99% herbicidal effect, phytotoxicity) | 4 (90%-99% herbicidal effect, phytotoxicity)
2 | CCC1(c2ccccc2)CCN(Cc2ccccc2NS(=O)(=O)C(F)(F)F)C(=O)O1 (centres unmarked) [Compound 1-316] | 5 (100% herbicidal effect, phytotoxicity) | 4 (90%-99% herbicidal effect, phytotoxicity) | 5 (100% herbicidal effect, phytotoxicity) | 4 (90%-99% herbicidal effect, phytotoxicity) | 4 (90%-99% herbicidal effect, phytotoxicity)
3 | CC(C)COC(=O)N(c1ccccc1CN1CCC(C)(C)OC1=O)S(=O)(=O)C(F)(F)F [Compound 1-50] | 4 (90%-99% herbicidal effect, phytotoxicity) | 4 (90%-99% herbicidal effect, phytotoxicity) | 4 (90%-99% herbicidal effect, phytotoxicity) | 4 (90%-99% herbicidal effect, phytotoxicity) | 4 (90%-99% herbicidal effect, phytotoxicity)
4 | CC(C)COC(=O)N(c1ccccc1CN1CCC(C)(C(C)(C)C)OC1=O)S(=O)(=O)C(F)(F)F (centres unmarked) [Compound 1-332] | 5 (100% herbicidal effect, phytotoxicity) | 5 (100% herbicidal effect, phytotoxicity) | 5 (100% herbicidal effect, phytotoxicity) | 4 (90%-99% herbicidal effect, phytotoxicity) | 4 (90%-99% herbicidal effect, phytotoxicity)
5 | CCOC(=O)N(c1ccccc1CN1CCC(C)(C(F)(F)F)OC1=O)S(=O)(=O)C(F)(F)F (centres unmarked) [Compound 1-82] | 5 (100% herbicidal effect, phytotoxicity) | 5 (100% herbicidal effect, phytotoxicity) | 5 (100% herbicidal effect, phytotoxicity) | 4 (90%-99% herbicidal effect, phytotoxicity) | 4 (90%-99% herbicidal effect, phytotoxicity)
6 | CCCCOC(=O)N(c1ccccc1CN1CCCOC1=O)S(=O)(=O)C(F)(F)F [Compound 1-5] | 4 (90%-99% herbicidal effect, phytotoxicity) | 4 (90%-99% herbicidal effect, phytotoxicity) | 4 (90%-99% herbicidal effect, phytotoxicity) | 4 (90%-99% herbicidal effect, phytotoxicity) | 4 (90%-99% herbicidal effect, phytotoxicity)
7 | CC(C)COC(=O)N(c1ccccc1CN1CCC(C)(C2(C)CC2)OC1=O)S(=O)(=O)C(F)(F)F (centres unmarked) [Compound 1-376] | 5 (100% herbicidal effect, phytotoxicity) | 5 (100% herbicidal effect, phytotoxicity) | 5 (100% herbicidal effect, phytotoxicity) | 4 (90%-99% herbicidal effect, phytotoxicity) | 4 (90%-99% herbicidal effect, phytotoxicity)
